Experimental data as given in PubChem BioAssay (NCI).
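Step 1: Grow cells in 96-well plates. Step 2: Expose to compound for 48 hours at 5 concentrations. Step 3: Interpolate endpoints linearly; if unreached, use highest concentration. GI50 = concentration required for 50% inhibition of growth. TGI: concentration producing complete growth inhibition.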

Experiments:
Experiment in all cases: DTP human tumour cell line panel, 48 h
[1] = test system: A549 NSCLC
[2] = test system: DU-145 prostate
[3] = test system: EKVX NSCLC
[4] = test system: HOP-62 NSCLC
[5] = test system: HT29 colon
[6] = test system: NCI-H522 lung
[7] = test system: OVCAR-8 ovarian
[8] = test system: SK-MEL-2 melanoma
[9] = test system: SK-OV-3 ovarian
[10] = test system: SNB-19 CNS

| Structure (SMILES) | GI50 [1] [µM] | TGI [1] [µM] | GI50 [2] [µM] | TGI [2] [µM] | GI50 [3] [µM] | TGI [3] [µM] | GI50 [4] [µM] | TGI [4] [µM] | GI50 [5] [µM] | TGI [5] [µM] | GI50 [6] [µM] | TGI [6] [µM] | GI50 [7] [µM] | TGI [7] [µM] | GI50 [8] [µM] | TGI [8] [µM] | GI50 [9] [µM] | TGI [9] [µM] | GI50 [10] [µM] | TGI [10] [µM] |
| --- | --- | --- | --- | --- | --- | --- | --- | --- | --- | --- | --- | --- | --- | --- | --- | --- | --- | --- | --- | --- |
| Cc1ccc(C(SCC(N)C(=O)O)(c2ccccc2)c2ccc(C)cc2)cc1 (stereo not given) | 0.466 | 45.6 | 0.287 | 2.66 | 0.357 | > 46.8 | 2 | 18.9 | 0.334 | 3.38 | 0.132 | 2.58 | 0.433 | 44.2 | 0.219 | 3.88 | 0.0811 | 19.6 | 0.476 | 39.3 |
| C=C(F)C(=O)N1CCN(c2nc(OC[C@@H]3CCCN3C)nc3c2CCN(c2cccc4cccc(Cl)c24)C3)C[C@@H]1CC#N | 0.673 | 2.57 | 1.04 | 2.87 | 1.93 | 7.53 | < 0.01 | 1.48 | 0.699 | 2.42 | 0.441 | 1.73 | 0.473 | 1.79 | 1.4 | 2.8 | 2.17 | 4.94 | 1.19 | 5.32 |
| O=S(=O)([O-])c1ccc2c(c1)-c1nc-2nc2[n-]c(nc3nc(nc4[n-]c(n1)c1ccc(S(=O)(=O)[O-])cc41)-c1cc(S(=O)(=O)[O-])ccc1-3)c1ccc(S(=O)(=O)[O-])cc21.[Cu+2].[Na+] | 24.1 | > 100 | > 100 | > 100 | > 60.4 | > 100 | > 100 | > 100 | 3.32 | > 100 | 44.8 | > 100 | > 100 | > 100 | > 100 | > 100 | 97.9 | > 100 | > 68.4 | > 100 |
| O=C(c1ccccc1)c1cc(Cl)ccc1OCCCCN1CCN(CCCCOc2ccc(Cl)cc2C(=O)c2ccccc2)CC1 | 6.6 | 20.9 | 2.74 | 10.1 | 10.8 | 24.7 | 3.82 | 13.6 | 2.59 | 7.66 | 2.09 | 3.83 | 1.82 | 3.37 | 2.58 | 4.92 | 17.1 | 31.9 | 10 | 22.8 |
| C[C@H]1c2cccc(O)c2C(O)=C2C(=O)[C@]3(O)C(O)=C(C(N)=O)C(=O)[C@@H](N(C)C)[C@@H]3[C@@H](O)[C@@H]21 | 3.22 | 13.2 | 3.61 | 12.5 | 3.31 | 15.5 | 2.76 | 10.8 | 3.43 | 11.9 | 3.16 | 12.4 | 3.29 | 14.7 | 3.13 | 8.99 | 3.38 | 14.3 | 3.02 | 14.5 |
| Cc1ccc(Cl)cc1Nc1nc(C(F)(F)F)ccc1C(=O)N1CCN(c2ccc(F)cc2)CC1 | 15.3 | 37.1 | 17.4 | 36.6 | 12.8 | 45.4 | 14.7 | 29.8 | 10.7 | 23.9 | 12.3 | 30.2 | 16.6 | 50.2 | 16.1 | 37.1 | 15.6 | 36.1 | 14.9 | 30.5 |
| O=S(=O)(Nc1cc(F)cc(Cl)c1)c1ccc(-c2cnc(C3CC3)o2)cc1 | 1.9 | 19.7 | 3.58 | 23.2 | 4.86 | 39.1 | 1.56 | 17.7 | 0.515 | 10.6 | 1.09 | 16.5 | 3.72 | 21.5 | 4.66 | 26.9 | 4.84 | 25.9 | 1.46 | 16.7 |
| Cn1c(=O)c2c(nc(Nc3cc(=O)[nH]c(=O)[nH]3)n2Cc2ccccc2)n(C)c1=O | > 100 | > 100 | > 100 | > 100 | 56.6 | > 100 | > 100 | > 100 | > 100 | > 100 | > 100 | > 100 | > 100 | > 100 | > 100 | > 100 | > 100 | > 100 | > 100 | > 100 |
| COc1cc(Nc2cn[nH]c2-c2ccc(Cl)cc2)cc(OC)c1OC | 5.96 | > 100 | 8.73 | 42 | 5.21 | 52.7 | 6.91 | 44.5 | 3.24 | 14.3 | 6.81 | 37.5 | 14.3 | > 100 | 6.82 | 41.5 | 4.92 | 36.6 | 6.96 | > 69.3 |
